# Key:
# [1] = tested on: Bacillus subtilis BKM B-501; test: Antibacterial activity (MIC/MBC), serial dilutions in liquid MH medium; format: cell-based; details: for MIC: 20 h, MH medium
# Procedure: (§1) The antibacterial activity of compounds was determined against Bacillus subtilis BKM B-501, Staphylococcus aureus 209P, Enterococcus faecalis BKM B-871, and Micrococcus luteus BKM Ac-2230 strains (acquired from the All-Russia Collection of Microorganisms at the Institute for Biochemistry and Physiology of Microorganisms, Russian Academy of Sciences). The main parameters characterizing the antibacterial activity are the minimal inhibitory concentration (MIC) and minimal bactericidal concentration (MBC). […] MBC is the least concentration that causes the death of all cells.
# (§2) MIC was quantified by inhibiting culture growth in a liquid medium with serial dilutions of compounds using a modified procedure [Amsterdam, D., “Susceptibility Testing of Antimicrobials in Liquid Media,” in Antibiotics in Laboratory Medicine, Ed. by Lorian, V., 4th ed., Baltimore: Williams and Wilkins, 1996, pp. 52-111].
# (§3) Bacteria were cultured and tests were carried out on an MH liquid medium (Mueller-Hinton medium: a dry extract of beef broth, 4 g/L; starch, 1.5 g/L; casein hydrolyzate, 17.5 g/L; Sigma-Fluka Catalog No. 70192) at 37° C., 100% humidity, and under stirring. Cultures (4th through 7th receeding post-thawing) in the exponential growth phase were used for tests.
# (§4) Therefore, a correction for absorption was applied in estimating the optical density of bacterial suspensions for each compound with account for its concentration in the well.
# (§5) The protocol for experimental antibacterial activity determination for tested compounds was as follows. A cryovial with the test strain culture (Bacillus subtilis BKIVI B-501, Staphylococcus aureus 209P, Enterococcus faecalis BKM B-871, or Micrococcus luteus BKIVI Ac-2230) in a medium with 7% DMSO stored in liquid nitrogen, was rapidly defrosted, and 1.5 mL of the fresh MH medium was inoculated with 100 μL of the cell suspension. Cells were grown for one day at 37° C. and stirred on an orbital shaker at 150 rpm. The morphologic features of the strain and the absence of contamination with foreign bacteria were verified by: (a) inoculation on an agarized (15 g/L agar) MH medium and observation of the shape and color of the grown colonies and (b) examination of characteristic morphologic features under a microscope (Mikmed-2, LOMO, Russia) equipped with a 40× objective lens. Further bacteria were cultured in 1 mL of the liquid MH medium at 37° C. under stirring. The cells were reseeded every day. Cell cultures were used in tests starting with 3rd reseeding and ending with 6th one.
# (§6) For testing, 5 μL of a bacterial suspension in the stationary growth phase was transferred to 1 mL of a sterile MH medium and incubated until the exponential growth phase was attained (3 to 5 h, 37° C., stirring at 150 rpm). To estimate the microorganisms concentration, the optical density (A) of the resulting bacterial culture was measured at a wavelength of 595 nm. The value of A=0.2 measured from a […] portion of the cell suspension in a 96-well plate, with a correction for the medium absorption applied, was set to correspond to 4×10^8 cells/mL for both strains used. Taking into account the cell concentration measurements, the suspension was diluted with the MH medium to a concentration of from 5×10^4 to 1×10^5 cells/mL and transferred to a sterile 96-well plate in an amount of 100 μL, per well. Then, the cells were added with tested compounds and twofold serial dilutions of these compounds in plate's wells were made.
# (§7) The controls used were: 100 μL of an additive-free bacterial culture (four wells); a bacterial culture added with 1% DMSO or water in the same volume as in the wells with the maximal concentration of the tested compounds (four wells); and 100 μL of the sterile MH medium without bacteria and without tested compounds for control of occasional contamination in the plate (four wells).
# [2] = tested on: Enterococcus faecalis BKM B-871; test: as above; format: cell-based; details: for MIC: 20 h, MH medium
# Procedure: as §1, §2, §3, §4, §5, §6, §7
# [3] = tested on: Micrococcus luteus BKM Ac-2230; test: as above; format: cell-based; details: for MIC: 20 h, MH medium
# Procedure: as §1, §2, §3, §4, §5, §6, §7
# [4] = tested on: Staphylococcus aureus 209P; test: as above; format: cell-based; details: for MIC: 20 h, MH medium
# Procedure: as §1, §2, §3, §4, §5, §6, §7
# human leukocytes = test: Cytotoxic activity against human leukocytes; details: for Death of leukocytes in the presence of 1 mM of compound / concentration at which a weak toxic effect on leukocytes appears: 3 h incubation; for toxic effect on human blood leukocytes (in words): concentrations of up to 1 mM, 3 h
# Procedure: Total leukocytes were isolated from human blood by unforced sedimentation using freshly collected venous blood from a healthy donor.
# Blood (10 mL) added with 10 units/mL heparin was exposed for 2.5 h in the dark at a temperature of 15 to 18° C. A light-colored liquid supernatant (4 mL) was collected over the layer of sedimenting erythrocytes, washed three times with balanced Hanks's salt solution, and resuspended in the RPMI-1640 medium (added with 8% fetal bovine serum, 2 mM L-glutamine, and 10 mM HEPES; hereinafter, the complete medium).
# The concentrations of leukocytes and erythrocytes in the suspension were determined by counts in Goryachev's chamber, after which the suspension was adjusted to a leukocyte concentration of (1.0±0.1)×10^6 cells/mL with the complete medium.
# To determine the cytotoxicity of the tested compounds for human leukocytes, the cell suspension was transferred to wells of sterile 96-well plates, tested compounds were added with serial twofold dilutions (the range of tested concentrations was from 3.2 to 100 μM for GrD and gramicidin S; from 8 to 500 μM for compound XIII; and from 8 to 1000 μM for compounds V, VI, VII, VIII, IX, X, XI, XIV, XV, XIX, and Hem), and the mixture was carefully stirred. The experiment was performed in two replicas.
# As controls served cells added with an equivalent amount of the solvent in which tested compounds were prepared, namely: water for compounds VII and X; an aqueous solution of DMSO for compounds V, VI, VIII, and IX; and DMSO for GrD, gramicidin S, Hem, XI, XIII, XIV, XV, and XIX. An additional control was an additive-free leukocyte suspension.
# Cells were incubated with tested compounds for 3 h (37° C., 5% CO2, 100% humidity). Leukocyte death values were quantified using fluorescence microscopy. Staining with propidium iodide (it permeates only into dead cells nuclei) and Hoechst 33342 (it stains all nuclei) was used to recognize dead and living cells. Cells were incubated for 15 min in plates with propidium iodide and Hoechst 33342 (37° C., 5% CO2), and then the plates were placed under a microscope for analysis.
# The dead cell fraction was derived from the fluorescence images of cells obtained in the blue (Hoechst 33342) and red (propidium iodide) spectral ranges using an Axio Observer (Zeiss, Germany) fluorescence microscope equipped with a 10× objective lens (Plan-Neofluar 10×/0.3). The following sets of fluorescence filters were used. For propidium iodide: a 530/585-nm bandpass excitation filter, a 600-nm cut-off dichroic minor, and a 615-nm longpass barrier filter for analysis. For Hoechst 33342: a 359/372-nm bandpass excitation filter, a 395-nm cut-off dichroic mirror, and a 397-nm longpass barrier filter for analysis.
# A digital camera recorded three types of cell images: (a) an image in the transmitted white light; (b) a blue fluorescence image obtained with UV excitation, and (c) a red fluorescence image obtained with green light excitation. At least four fields of view were photographed per well in various regions of a well.
# Candida albicans No. 927 = test: Antifungal activity, culture growth with pH indicator; format: cell-based; set-up: key to Test culture growth at various dilutions of the agent: (−) No growth; the indicator is blue; (±) Weak growth; the indicator is yellow, but the precipitate of grown cells looks as a diffuse spot; (+) Strong growth; the indicator is yellow, and the cell precipitate looks as a compact spot
# Procedure: The subjects of action were Cryptococcus neoformans No. 3465 museum strain cells and Candida albicans No. 927 museum strain cells grown for one day on a glucose-peptone-yeast medium at 32° C. The reference compounds were the following antimycotics: pimafucin, amphotericin, and fluconazole.
# Experiments were carried out on round-bottomed 96-well plates (Lenmedpolimer) in two replicas. To the first column (0), added was 10 μL of the stock solution of a water-soluble agent with concentrations of 10^−2 to 10^−3 mol/L; to the second column, added was also the same 10 μL plus 10 μL of the solvent corresponding to the given compound, suspended, 10 μL was transferred to the next well, and so on to the 8th well of the row. Stock solutions of water-insoluble compounds of general formula (I) (compounds V, VIII, XII, XIII, XIV, and hemin) were prepared in DMSO and were diluted with DMSO and the medium. DMSO concentrations in the reaction mixture in a well were ≦5%.
# Then, to every well added was 190 μL of a Cr. neoformans cell culture suspension in a synthetic nutritional medium (so that the final cell concentration was approximately 10^3 CFU/mL), this medium containing Bromocresol Blue as a pH-indicator (pH: 5.5; indicator color: blue). As pH reduced to 4.5, the indicator in the culture changed its color to yellow, thereby indicating fungal cell growth. The synthetic medium comprised the following components: salts, amino acids, microelements, vitamins, an antibiotic, and glucose (30 components altogether) [Yarrow, D., “Methods for the Isolation, Maintenance and Identification of Yeasts,” in: The Yeasts. A Taxonomic Study, Ed. by Kurtsman, C. P, and Fell, M., Elsevier, 1998, pp. 77-100]. After being inoculated with a Cr. neoformans cell suspension, the plate was incubated at 32° C. for 1 h with stirring, then transferred to a stationary thermostat and incubated for two and five days at 27° C. After being inoculated with a C. albicans cell suspension, the plates were incubated for 1 h at 32° C. with stirring, then transferred to a stationary thermostat and incubated for one and four days at 27° C.
# [5] = Solubility of tested agents (water / DMSO); details: water or DMSO
Compound,MBC [1],MIC [1] [µM],MBC [2],MIC [2] [µM],MBC [3] [µM],MIC [3] [µM],MBC [4],MIC [4] [µM],Death of leukocytes in the presence of 1 mM of compound (human leukocytes) [%],toxic effect on human blood leukocytes (in words) (human leukocytes),Test culture growth at various dilutions of the agent (Candida albicans No. 927; dilution 0: 1 × 10^−4 M),Test culture growth at various dilutions of the agent (Candida albicans No. 927; dilution : 2 of 1 × 10^−4 M),Test culture growth at various dilutions of the agent (Candida albicans No. 927; dilution : 4 of 1 × 10^−4 M),Test culture growth at various dilutions of the agent (Candida albicans No. 927; dilution : 8 of 1 × 10^−4 M),Test culture growth at various dilutions of the agent (Candida albicans No. 927; dilution : 16 of 1 × 10^−4 M),Test culture growth at various dilutions of the agent (Candida albicans No. 927; dilution : 32 of 1 × 10^−4 M),Test culture growth at various dilutions of the agent (Candida albicans No. 927; dilution : 64 of 1 × 10^−4 M),solubility (in words) [5],concentration at which a weak toxic effect on leukocytes appears (human leukocytes) [µM]
"C=CC1=C(C)c2cc3[n-]c(cc4nc(cc5[n-]c(cc1n2)c(C)c5CCC(=O)NCC(O)CO)C(CCC(=O)NCC(O)CO)=C4C)c(C)c3C=C.[Cl-].[Fe+3] (stereo not shown) [Compound XVII, Protohemin IX 6,7-bis-N-(2,3-Dihydroxypropyl)amide]",>200 µM,>200,>200 µM,>200,>200,>200,>200 µM,>200,,,,,,,,,,,
C=CC1=C(C)c2cc3[n-]c(cc4nc(cc5[n-]c(cc1n2)c(C)c5CCC(=O)NCCC(=O)NCCc1c[nH]cn1)C(CCC(=O)NCCC(=O)NCCc1c[nH]cn1)=C4C)c(C)c3C=C.[Cl-].[Fe+3] [IX],100 ± 25 µM,50 ± 13,>400^3 μM,200,25,,400 µM,100,3.1 ± 0.3,did not cause the death,,,,,,,,,
Protohemin IX 6(7)-Mono[Cyclo(Orn-Leu-D-Phe-Pro-Val)2])amide [Compound XIII],,,,,,,,,14 ± 2,,±,±,+,+,+,+,+,water-insoluble,
"C=CC1=C(C)c2cc3[n-]c(cc4nc(cc5[n-]c(cc1n2)c(C)c5CCC(=O)NCC(=O)OC)C(CCC(=O)NCC(=O)OC)=C4C)c(C)c3C=C.[Cl-].[Fe+3] [Compound XV, 6,7-Bis(N^α-Glycyl Methyl Ester)-Protohemin IX]",25 ± 7 µM,12.5 ± 4,,,6.5,1.6,,,13 ± 1,,,,,,,,,DMSO-soluble,~1000
"C=CC1=C(C)c2cc3[n-]c(cc4nc(cc5[n-]c(cc1n2)c(C)c5CCC(=O)NC(CO)CO)C(CCC(=O)NC(CO)CO)=C4C)c(C)c3C=C.[Cl-].[Fe+3] [Compound XVI, Protohemin IX 6,7-bis-N-(1,3-Dihydroxypropan-2-yl)amide]",>200 µM,>200,>200 µM,>200,>200,>200,>200 µM,>200,,,,,,,,,,,
6(7)-Mono(Arg-Gly-Asp)-Protohemin IX [Compound XI],25 ± 7 µM,12.5 ± 4,Not reached,100,200,50,Not reached,12.5,8.6 ± 0.4,fully due to the toxic effect of the solvent,,,,,,,,,
"C=CC1=C(C)c2cc3[n-]c(cc4nc(cc5[n-]c(cc1n2)c(C)c5CCC(=O)NCCc1c[nH]cn1)C(CCC(=O)NCCc1c[nH]cn1)=C4C)c(C)c3C=C.[Cl-].[Fe+3] [Compound XIX, 6,7-bis-Histaminyl-Protohemin IX]",Not reached,100 ± 25,Not reached,200,25,25,Not reached,200,13 ± 1,,,,,,,,,,~1000
